The values below are quoted from earlier work in patent publication US10946025B2, “Compounds” (Glaxo Group Limited, priority 2009, dated 2021).

Series [1] concerns neutrophil. The following applies: background literature; for superoxide release: neutrophils.
Series [2] deals with neutrophils. The following applies: treatment of neutrophils; Thelen et al. 1994.

As to `O=c1cc(N2CCOCC2)oc2c(-c3ccccc3)cccc12` [LY294002], in series [1], the neutrophil migration entry is reported as “block” and the superoxide release entry is listed as “block”.
For `COC[C@H]1OC(=O)c2coc3c2[C@@]1(C)C1=C(C3=O)[C@@H]2CCC(=O)[C@@]2(C)C[C@H]1OC(C)=O` [wortmannin], the “fMLP-induced respiratory burst response” value in series [2] is given as “prevents”. Also, in series [1], the neutrophil migration result is “block” and the superoxide release result is “block”.
